Assays:
[1] = biological target: T1, BRD4 (BD1) (Homo sapiens, UniProt O60885); assay: Competitive HTRF TR-FRET binding assay (displacement of acetylated histone H4 peptide); conditions: for IC50 / TR-FRET IC50 (nM): 16-point titration 0.1 nM to 10 µM, n = 2, Negative = curve could not be fitted to a sigmoidal curve; for IC50: read-out: TR-FRET IC50
T1 construct: A pET28 plasmid containing residues 44–168 of BRD4 (BD1), a 6xHis tag, a TEV protease cleavage site; 6xHis (N, cleaved yes); made in house; host or cells: E. coli Rosetta (D3)
Protocol: To further quantitatively characterize the DSF/SPR hits compounds obtained in the single-dose screenings, we selected HTRF TR-FRET. Specifically, we employed a competitive HTRF TR-FRET experiment to measure the compound’s capacity to displace an acetylated peptide from the binding site of BRD4 (BD1). For each molecule, a 16-point concentration curve was titrated against the peptide-BRD (BD1) complex and incubated for 1.5 h. A compound was considered a positive binder if we could fit its titration curve to a sigmoidal curve to determine its IC50. […] Compound screening was carried out in 384-well, white, round-bottom, small-volume plates (CORNING) in a final volume of 20 µL of 50 mM HEPES (pH 7.4), 50 mM NaCl, 400 mM KF, 0.5 mM CHAPS, and 0.05% BSA. […] Then, the labeled anti-His6-XL665 antibody (CisBio) (10 nM) was added to the mixture and incubated for 15 min, before the Eu3+ cryptate-conjugated streptavidin (2 nM) (CisBio) was added and incubated for 15 min. All incubations were performed at room temperature. […] Titration of (+)−JQ1 was used as a positive control for each experiment.

[2] = biological target: T1, BRD4 (BD1); assay: Differential scanning fluorimetry (DSF) single-dose thermal shift screening; format: binding; conditions: DSF, compound 10 µM, BRD4 (BD1) 2 µM, n = 3, decimal comma; read-out: ΔTm ºC at [10 µM]
[3] = biological target: T2, His6-BRD4 (BD1) (Homo sapiens, UniProt O60885); assay: Surface plasmon resonance (SPR) single-dose screening; format: binding; parameters: key to SPR RESULT: Positive: compounds were considered as SPR hits also when their average signal was further than two standard deviations apart from the average signal of the blank samples (1% DMSO); conditions: for RUs at [10 µM]: SPR, compound 10 µM, 1% DMSO, n = 2, decimal comma; for SPR RESULT: single dose 10 µM, n = 2
T2 construct: A pET28 plasmid containing residues 44–168 of BRD4 (BD1), a 6xHis tag, a TEV protease cleavage site; made in house; host or cells: E. coli Rosetta (D3)

SMILES | IC50 [1] | ΔTm at 10 µM [2] | RUs at [10 µM] [3] | SPR RESULT [3] | TR-FRET IC50 (nM) [1] | IC50 by HTRF TR-FRET, range in words ([1]; potency range or dose-response behaviour)
COc1cccc(-n2nc(-c3cscn3)nc2-c2cn(C)c(=O)c3ccccc23)c1 [Compound 58, COC=1C=CC=C(C1)N2N=C(N=C2C3=CN(C)C(=O)C=4C=CC=CC34)C5=CSC=N5] | 511 nM | 2.28 °C | 75,54 ± 39,86 RUs | Negative | – | –
Cc1nnc2sc(C(=O)N(C)C3CN(C(=O)CCC(C)N(C)C)CC34CC4)c(N)c2c1C (centres unmarked) [Compound 59, CC(CCC(=O)N1CC(N(C)C(=O)C=2SC=3N=NC(C)=C(C)C3C2N)C4(CC4)C1)N(C)C] | – | 4.12 °C | 13,73 ± 9,32 RUs | Negative | Negative | –
Cc1nnc2sc(C(=O)N3CCC4(CCC(NC(=O)Cc5csc(Cl)c5)CC4)CC3)c(N)c2c1C [Compound 60, CC=1N=NC=2SC(C(=O)N3CCC4(CCC(CC4)NC(=O)CC5=CSC(Cl)=C5)CC3)=C(N)C2C1C] | – | 0.94 °C | 48,37 ± 15,77 RUs | Positive | Negative | –
CCCc1c(C(=O)N2CCCC2Cn2cc(-c3cc(C)nc(C)c3)nn2)[nH]c(C)c1C(C)=O (centres unmarked) [Compound 61, CCCC1=C(NC(C)=C1C(=O)C)C(=O)N2CCCC2CN3C=C(N=N3)C=4C=C(C)N=C(C)C4] | 79.4 nM | 0.49 °C | 15,14 ± 5,89 RUs | Negative | – | –
COC1CC(CCC(=O)NC2CC3(CCN(C(=O)c4occc4Br)C3)Oc3ccccc32)C1 (centres unmarked) [Compound 62, COC1CC(CCC(=O)NC2CC3(CCN(C3)C(=O)C=4OC=CC4Br)OC=5C=CC=CC25)C1] | – | -0.15 °C | 23,54 ± 4,84 RUs | Positive | Negative | –
COC1(CNC(=O)c2nscc2Br)CN(C(=O)C2CCS(=O)(=O)N2)C1 (centres unmarked) [Compound 63, COC1(CNC(=O)C2=NSC=C2Br)CN(C1)C(=O)C3CCS(=O)(=O)N3] | – | 0.7 °C | 13,51 ± 3,27 RUs | Negative | Negative | –
Cc1cc(C)n2nc(CC(=O)NCC(C)(C)Cn3cc(-c4sccc4C)nn3)nc2n1 [Compound 64, CC=1C=CSC1C2=CN(CC(C)(C)CNC(=O)CC=3N=C4N=C(C)C=C(C)N4N3)N=N2] | – | 0.1 °C | 25,91 ± 0,65 RUs | Positive | Negative | –
CNC(=O)C1(C(=O)N[C@@H]2CCCC[C@H]2NC(=O)c2cnsn2)CCC1 [Compound 65, CNC(=O)C1(CCC1)C(=O)N[C@@H]2CCCC[C@H]2NC(=O)C=3C=NSN3] | 28.7 nM | 0.32 °C | 7,82 ± 0,92 RUs | Negative | – | –
COc1cccnc1C(=O)N1CCC2(CC(NC(=O)c3occc3Br)c3ccccc3O2)C1 (centres unmarked) [Compound 66, COC=1C=CC=NC1C(=O)N2CCC3(C2)CC(NC(=O)C=4OC=CC4Br)C=5C=CC=CC5O3] | 136 nM | 0.83 °C | 20,41 ± 1,87 RUs | Positive | – | –
Cc1cc(C)n2c(CNc3ccc(C)c(NC(=O)CN4CCCCC4)c3)cnc2n1 [Compound 67, CC=1C=C(C)N2C(CNC=3C=CC(C)=C(NC(=O)CN4CCCCC4)C3)=CN=C2N1] | 3.72 nM | 0.81 °C | 28,42 ± 2,09 RUs | Positive | – | low nM
CC(=O)c1ccc(N2CCN(C(=O)Nc3nnc(C)s3)CC2)c(F)c1 [Compound 69, CC(=O)C=1C=CC(N2CCN(CC2)C(=O)NC3=NN=C(C)S3)=C(F)C1] | – | 0.61 °C | 23,49 ± 1,0 RUs | Positive | Negative | –
COc1ccc(C=C(CC(=O)Nc2nnc(C)s2)c2nc3ccccc3s2)cc1OC [Compound 70, COC=1C=CC(C=C(CC(=O)NC2=NN=C(C)S2)C3=NC=4C=CC=CC4S3)=CC1OC] | 123 nM | 0.65 °C | 21,72 ± 4,06 RUs | Positive | – | –
Cc1nnc(NC(=O)NCc2cccc(C(=O)NCC3CCCO3)c2)s1 (centres unmarked) [Compound 73, CC1=NN=C(NC(=O)NCC=2C=CC=C(C2)C(=O)NCC3CCCO3)S1] | 10700 nM | 1.13 °C | 23,59 ± 6,69 RUs | Positive | – | –
Cc1nnc(NC(=O)CCC(=O)N2Cc3ccccc3OC3(CCOC3)C2)s1 (centres unmarked) [Compound 76, CC1=NN=C(NC(=O)CCC(=O)N2CC=3C=CC=CC3OC4(CCOC4)C2)S1] | 405 nM | 2.11 °C | 25 ± 11,77 RUs | Negative | – | –
Cc1nnc(NC(=O)C2CCCN(C(=O)c3ccc(Br)c(F)c3)C2)s1 (centres unmarked) [Compound 79, CC1=NN=C(NC(=O)C2CCCN(C2)C(=O)C=3C=CC(Br)=C(F)C3)S1] | – | 1.21 °C | 33,58 ± 5,55 RUs | Positive | Negative | –
Cc1nc(=O)c(CCC(=O)NC2CC(O)(Cn3cc(-c4cnn(C)c4C)nn3)C2)c[nH]1 (centres unmarked) [Compound 81, CC1=C(C=NN1C)C2=CN(CC3(O)CC(C3)NC(=O)CCC4=CNC(C)=NC4=O)N=N2] | 26.4 nM | -0.15 °C | 11,5 ± 1,85 RUs | Positive | – | –
Cc1ncc(C(=O)NCCn2cc(Cn3c(C)nc4ccccc43)nn2)c(=O)[nH]1 [Compound 83, CC1=NC=2C=CC=CC2N1CC3=CN(CCNC(=O)C4=CN=C(C)NC4=O)N=N3] | 325 nM | 0.78 °C | 14,05 ± 12,27 RUs | Negative | – | –

Next, values leading:

IC50 [1] | ΔTm at 10 µM [2] | RUs at [10 µM] [3] | SPR RESULT [3] | TR-FRET IC50 (nM) [1] | IC50 by HTRF TR-FRET, range in words ([1]; potency range or dose-response behaviour) | SMILES
71.4 nM | 0.79 °C | 11,01 ± 0,31 RUs | Positive | – | – | Cc1cc(C)n2nc(NC(=O)NCCOC3(C)CCOCC3)nc2n1 [Compound 71, CC=1C=C(C)N2N=C(NC(=O)NCCOC3(C)CCOCC3)N=C2N1]
92.9 nM | 0.51 °C | 19,09 ± 5,61 RUs | Positive | – | – | Cc1ncc(CNC(=O)NCc2cccc(S(=O)(=O)NC(C)C)c2)c(O)n1 [Compound 72, CC(C)NS(=O)(=O)C=1C=CC=C(CNC(=O)NCC=2C=NC(C)=NC2O)C1]
1370 nM | 0.4 °C | 52,94 ± 6,92 RUs | Positive | – | – | Cc1cc(C)n2nc(NC(=O)N3CCC(CCC(C)(C)C)C3)nc2n1 (centres unmarked) [Compound 74, CC=1C=C(C)N2N=C(NC(=O)N3CCC(CCC(C)(C)C)C3)N=C2N1]
– | 1.2 °C | 14,74 ± 1,95 RUs | Positive | Negative | – | Cc1ncc(CNC(=O)c2c(-c3ccccc3)nn3ccccc23)c(O)n1 [Compound 75, CC=1N=CC(CNC(=O)C=2C(=NN3C=CC=CC23)C=4C=CC=CC4)=C(O)N1]
135 nM | 0.48 °C | 67,27 ± 12,19 RUs | Positive | – | – | Cc1cc(C)n2nc(NC(=O)N3CCc4cc(Cl)cc(Cl)c4C3)nc2n1 [Compound 77, CC=1C=C(C)N2N=C(NC(=O)N3CCC=4C=C(Cl)C=C(Cl)C4C3)N=C2N1]
170 nM | 1.53 °C | 9,01 ± 0,76 RUs | Positive | – | – | Cc1cc(C(=O)NCCc2nc3cc(Cl)ccc3[nH]2)n2ncnc2n1 [Compound 78, CC=1C=C(C(=O)NCCC2=NC=3C=C(Cl)C=CC3N2)N4N=CN=C4N1]
23.6 nM | -0.49 °C | 29,64 ± 5,36 RUs | Positive | – | – | Cc1nnc(NC(=O)CNC(c2ccc(Cl)cc2)c2ccccc2C(C)C)s1 (centres unmarked) [Compound 80, CC(C)C=1C=CC=CC1C(NCC(=O)NC2=NN=C(C)S2)C=3C=CC(Cl)=CC3]
29.7 nM | -0.24 °C | 38,3 ± 6,87 RUs | Positive | – | – | CCOc1ccc(-c2cn(C3CC(NC(=O)c4cc(C)nc5ncnn45)C3)nn2)cc1F (centres unmarked) [Compound 82, CCOC=1C=CC(=CC1F)C2=CN(N=N2)C3CC(C3)NC(=O)C4=CC(C)=NC5=NC=NN45]
